Measured values as given in patent US12122771B2, “Compounds useful for treatment of substance use disorder” (HIGH POINT UNIVERSITY, priority 2021, dated 2024).

Columns and labels:
cocaine intake = details: monkeys; cited from earlier work
hD2R = hD2R (Homo sapiens (Human), UniProt P14416); test: [3H]N-methylspiperone competition binding, D2R; details: HEK 293 membranes, read-out: Ki (nM) ± SEM D2R
hD4R = hD4R (Homo sapiens (Human), UniProt P21917); test: [3H]N-methylspiperone competition binding, D4R; details: for Ki: HEK 293 membranes, [3H]N-methylspiperone, read-out: Ki (nM) ± SEM D4R; for Selectivity D2R/D4R / Selectivity D3R/D4R: ratio of Ki values
hD3R = hD3R (Homo sapiens (Human), UniProt P35462); details: read-out: Ki (nM) ± SEM D3R; HEK 293 membranes, [3H]N-methylspiperone
hD3R, sequence (P35462 whole entry): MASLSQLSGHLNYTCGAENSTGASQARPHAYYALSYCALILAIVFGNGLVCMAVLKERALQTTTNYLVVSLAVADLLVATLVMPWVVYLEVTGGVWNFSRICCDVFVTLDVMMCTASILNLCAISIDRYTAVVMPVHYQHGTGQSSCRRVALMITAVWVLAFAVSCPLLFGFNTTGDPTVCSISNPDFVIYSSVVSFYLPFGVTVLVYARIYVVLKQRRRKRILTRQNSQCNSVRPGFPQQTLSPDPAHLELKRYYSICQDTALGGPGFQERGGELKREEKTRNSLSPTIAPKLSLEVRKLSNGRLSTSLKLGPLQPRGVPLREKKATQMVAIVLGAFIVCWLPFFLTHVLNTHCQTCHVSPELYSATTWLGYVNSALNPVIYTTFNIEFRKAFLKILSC

hD4R, sequence (P21917 whole entry): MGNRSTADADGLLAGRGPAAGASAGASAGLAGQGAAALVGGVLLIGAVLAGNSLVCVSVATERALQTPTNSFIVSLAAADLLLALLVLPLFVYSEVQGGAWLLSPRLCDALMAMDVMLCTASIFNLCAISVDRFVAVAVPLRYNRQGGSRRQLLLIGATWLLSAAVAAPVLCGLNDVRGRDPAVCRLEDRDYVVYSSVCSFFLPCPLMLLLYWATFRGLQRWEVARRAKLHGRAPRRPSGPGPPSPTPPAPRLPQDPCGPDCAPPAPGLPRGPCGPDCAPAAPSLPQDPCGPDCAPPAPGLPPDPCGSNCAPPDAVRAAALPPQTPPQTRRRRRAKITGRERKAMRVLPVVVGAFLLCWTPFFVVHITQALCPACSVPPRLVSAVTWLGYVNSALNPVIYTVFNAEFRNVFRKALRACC
hD2R, sequence (P14416 whole entry): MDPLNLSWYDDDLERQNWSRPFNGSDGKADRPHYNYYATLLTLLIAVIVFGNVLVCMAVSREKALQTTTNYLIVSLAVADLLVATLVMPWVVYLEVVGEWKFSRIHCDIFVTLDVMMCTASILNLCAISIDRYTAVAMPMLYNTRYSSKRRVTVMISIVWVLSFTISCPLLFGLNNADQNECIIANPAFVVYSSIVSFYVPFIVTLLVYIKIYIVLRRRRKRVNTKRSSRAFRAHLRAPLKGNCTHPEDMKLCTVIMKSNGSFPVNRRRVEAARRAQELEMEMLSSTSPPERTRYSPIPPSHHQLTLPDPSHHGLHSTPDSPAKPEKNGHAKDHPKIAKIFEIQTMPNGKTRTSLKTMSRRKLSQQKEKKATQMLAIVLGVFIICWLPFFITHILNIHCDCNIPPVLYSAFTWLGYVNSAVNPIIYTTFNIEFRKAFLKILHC

Compound | cocaine intake (cocaine intake) | Ki (hD2R) [nM] | Ki (hD4R) [nM] | Selectivity D2R/D4R (hD4R) | Selectivity D3R/D4R (hD4R) | Ki (hD3R) [nM] | D4R binding selectivity vs. D2R and D3R (other D2-like receptors) (hD4R) [fold]
Ro10-5824 | reduced cocaine intake |  |  |  |  |  | 
c1ccc(-c2ncc(CN3CCN(c4ncccn4)CC3)[nH]2)cc1 [NGD-94-1] | reduced cocaine intake |  |  |  |  |  | 
CCc1ccnc(C2CCN(CCCc3nc4ccccc4s3)CC2)c1 [Compound 19] |  | 12300 ± 7670 | 5.89 | 2082 | 2838 | 16700 ± 13300 | 
Cc1cccc2nc(CCCN3CCC(c4ccccn4)CC3)sc12 [Compound 15] |  | 18000 ± 15200 | 1.13 ± 0.27 | 15907 | 32756 | 37100 ± 30300 | > 15907
